From patent US9790233B2, “Compositions and methods of modulating 15-PGDH activity” (CASE WESTERN RESERVE UNIVERSITY, priority 2012, dated 2017) come the findings set out here.

Experiment [1] is described as follows: Survival after whole body irradiation. Format: in vivo, C57BL/6J mice. Conditions: 11 Gy.
For experiment [2], the system named is 15-PGDH luciferase fusion construct in LS174T reporter cell line. In words: 15-PGDH-luciferase fusion gene reporter induction, LS174T cells. Format: cell-based. The following applies: Homo sapiens.
For experiment [3], the system named is 15-PGDH luciferase fusion construct in V9m reporter cell line. In words: 15-PGDH-luciferase fusion gene reporter induction, V9m cells. Type of experiment: cell-based.
The test system of the next experiment is A549 cells. The experiment in a line: PGE2 levels in the medium of IL1-beta stimulated A549 cells.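 For all read-outs here: PGE2 in the collected culture medium quantified by enzyme immunoassay (ELISA), with data drawn from three independent experiments.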 Format: cell-based. The following applies: for rank of PGE2 level in the medium: FIG. 44.
The subject of experiment [4] is 15-PGDH luciferase fusion construct in Vaco503 reporter cell line. In words: 15-PGDH-luciferase fusion gene reporter induction, V503 cells. Format: cell-based.
Where [5] appears, read: read-out: LS174T reporter activity ([…]), […], % increased luciferase activity over basal level, read-out: LS174T reporter activity (2.5 uM).
[6] abbreviates: read-out: LS174T reporter activity ([…]), […], % increased luciferase activity over basal level, read-out: LS174T reporter activity (7.5 uM).
The mark [7] stands for this setting: read-out: V9M reporter activity ([…]), […], % increased luciferase activity over basal level, 100 = doubling, read-out: V9M reporter activity (2.5 uM).
Where [8] appears, read: read-out: V9M reporter activity ([…]), […], % increased luciferase activity over basal level, 100 = doubling, read-out: V9M reporter activity (7.5 uM).
Where [9] appears, read: read-out: V503 reporter activity ([…]), […], % increased luciferase activity over basal level, read-out: V503 reporter activity (2.5 uM).
Where [10] appears, read: read-out: V503 reporter activity ([…]), […], % increased luciferase activity over basal level, read-out: V503 reporter activity (7.5 uM).
[11] abbreviates: read-out: Ls174T-SC1 reporter activity, % ([…]), LS174T reporter cells, […] compound, % induction of luciferase activity over basal level, read-out: Ls174T-SC1 reporter activity, % (2.5 μM).
The mark [12] stands for this setting: read-out: Ls174T-SC1 reporter activity, % ([…]), LS174T reporter cells, […] compound, % induction of luciferase activity over basal level, read-out: Ls174T-SC1 reporter activity, % (7.5 μM).
[13] abbreviates: read-out: V9M-SC3 Reporter activity ([…]) (%), V9m reporter cells, […] compound, % induction of luciferase activity over basal level, read-out: V9M-SC3 Reporter activity (2.5 μM) (%).
Setting [14] is: read-out: V9M-SC3 Reporter activity ([…]), %, V9m reporter cells, […] compound, % induction of luciferase activity over basal level, read-out: V9M-SC3 Reporter activity (7.5 μM), %.
[15] abbreviates: read-out: V503-3H9-7 reporter activity, % ([…]), V503 reporter cells, […] compound, % induction of luciferase activity over basal level, read-out: V503-3H9-7 reporter activity, % (2.5 μM).
The mark [16] stands for this setting: read-out: V503-3H9-7 reporter activity, % ([…]), V503 reporter cells, […] compound, % induction of luciferase activity over basal level, read-out: V503-3H9-7 reporter activity, % (7.5 μM).
The mark [17] stands for this setting: read-out: LS174T reporter activity ([…]), […], % induction over basal level, Table 17, read-out: LS174T reporter activity (2.5 μM).
Where [18] appears, read: read-out: lS174T reporter activity ([…]), […], % induction over basal level, Table 17, read-out: lS174T reporter activity (7.5 μM).
The mark [19] stands for this setting: read-out: V9M reporter activity ([…]), […], % induction of luciferase activity over basal level, Table 17, read-out: V9M reporter activity (2.5 μM).
Where [20] appears, read: read-out: V9M reporter activity ([…]), […], % induction over basal level, Table 17, read-out: V9M reporter activity (7.5 μM).
Setting [21] is: read-out: V503 reporter activity ([…]), […], % induction over basal level, Table 17, read-out: V503 reporter activity (2.5 μM).
[22] abbreviates: read-out: V503 reporter activity ([…]), […], % induction over basal level, Table 17, read-out: V503 reporter activity (7.5 μM).
[23] abbreviates: read-out: Ls174T-SC1 reporter activity, % ([…]), […], Table 18, read-out: Ls174T-SC1 reporter activity, % (2.5 μM).
Where [24] appears, read: read-out: Ls174T-SC1 reporter activity, % ([…]), […], Table 18, read-out: Ls174T-SC1 reporter activity, % (7.5 μM).
Where [25] appears, read: read-out: V9M-SC3 Reporter activity ([…]) (%), […], Table 18, read-out: V9M-SC3 Reporter activity (2.5 μM) (%).
Where [26] appears, read: read-out: V503-3H9-7 reporter activity, % ([…]), […], Table 18, read-out: V503-3H9-7 reporter activity, % (2.5 μM).
Setting [27] is: read-out: V503-3H9-7 reporter activity, % ([…]), […], Table 18, read-out: V503-3H9-7 reporter activity, % (7.5 μM).

Like-named read-outs stand apart in the source and are kept apart here.

On to “2-(butylsulfinyl)-4-phenyl-6-(thiophen-2-yl)thieno[2,3-b]pyridin-3-amine [SW033291]”, for which the “longer survival than vehicle control” value in experiment [1] (5 mg/kg IP daily) was 48 h. Further, the “day on which all mice were dead” value in experiment [1] (control day 8) came out at 10 days.
With `CCCC[S+]([O-])c1sc2nc(-c3cccs3)nc(-c3ccccc3)c2c1N` (stereo not drawn) [SW208067, 6-(butylsulfinyl)-4-phenyl-2-(thiophen-2-yl)thieno[2,3-d]pyrimidin-5-amine], the activation at […] stood at 94.3% in experiment [2] (setting [5]); 79.6% in experiment [2] (setting [6]); 122% in experiment [3] (setting [7]); 108% in experiment [3] (setting [8]); 94.3% in experiment [4] (setting [9]); 79.6% in experiment [4] (setting [10]). The “rank of PGE2 level in the medium” value in the experiment with A549 cells (100 nM drug) is “highest levels of PGE2”.
Turning to `CCOC(=O)CN(c1cc(OC)ccc1OC)S(=O)(=O)c1ccccc1` [SW202951], the activation at […] in experiment [2] (setting [11]) worked out at 34.3%; in experiment [2] (setting [12]) it was 47.6%; in experiment [3] (setting [13]), 4.56%; in experiment [3] (setting [14]), 17.7%; in experiment [4] (setting [15]), 97.5%; in experiment [4] (setting [16]) it was 131%. Also, the “Decrease PGE-2 (IL-1beta-A549, %)” value in the experiment on A549 cells (media of IL-1beta stimulated A549 cells) was −1.01%.
Turning to `CCCC[S+]([O-])c1sc2nc(-c3nccs3)cc(-c3ccccc3)c2c1N` (stereo not drawn) [SW208066, 2-(butylsulfinyl)-4-phenyl-6-(thiazol-2-yl)thieno[2,3-b]pyridin-3-amine], the “rank of PGE2 level in the medium” value in the experiment with A549 cells (100 nM drug) is recorded as “highest levels of PGE2”.
For the compound `COc1ccc(S(=O)(=O)N(CC(=O)N2CCOCC2)c2cc(OC)ccc2OC)cc1` [SW207997], the activation at […] stood at 87.6% in experiment [2] (setting [11]); 94.1% in experiment [2] (setting [12]); 59.5% in experiment [3] (setting [13]); 71% in experiment [3] (setting [14]); 149% in experiment [4] (setting [15]); 157% in experiment [4] (setting [16]). Moreover, in the experiment on A549 cells (100 nM drug, FIG. 94), the “rank of reduction in levels of PGE2 in the medium” value is given as “greatest reduction in levels of PGE2”.
Regarding `CNC(=O)CN(c1cc(OC)ccc1OC)S(=O)(=O)c1ccccc1` [SW203682], the activation at […] is 187% in experiment [2] (setting [11]); 13.8% in experiment [2] (setting [12]); 15.3% in experiment [3] (setting [13]); 22.4% in experiment [3] (setting [14]); -32.2% in experiment [4] (setting [15]); 79.2% in experiment [4] (setting [16]).
For `COc1ccc(NC(=O)CN(c2ccccc2OC)S(C)(=O)=O)cc1` [compound 920847], the activation at […] in experiment [2] (setting [17]) is 6.18%; in experiment [2] (setting [18]), 2.97%; in experiment [3] (setting [19]), 9.26%; in experiment [3] (setting [20]), 17.7%; in experiment [4] (setting [21]) it was -4.47%; in experiment [4] (setting [22]), -10.6%.
Turning to `CCCC[S+]([O-])c1sc2ncccc2c1N` (stereo not drawn) [SW208064, 2-(butylsulfinyl)thieno[2,3-b]pyridin-3-amine], the activation at […] in experiment [2] (setting [5]) is 126%; in experiment [2] (setting [6]) it was 96.2%; in experiment [3] (setting [7]) it was 82.6%; in experiment [3] (setting [8]), 50.1%; in experiment [4] (setting [9]) it was 126%; in experiment [4] (setting [10]) it was 96.2%.
As to `COc1ccc(OC)c(N(CC(=O)Nc2ccc(F)cc2)S(=O)(=O)c2ccccc2)c1` [426231-26-7], the activation at […] is 16.2% in experiment [2] (setting [23]); 22.1% in experiment [2] (setting [24]); 10% in experiment [3] (setting [25]); 64% in experiment [4] (setting [26]); 113% in experiment [4] (setting [27]).
Take `COc1ccc(OC)c(N(CC(=O)Nc2cccnc2)S(=O)(=O)c2ccccc2Cl)c1` [SW202949]: the activation at […] in experiment [2] (setting [11]) was -1.58%; in experiment [2] (setting [12]), -5.87%; in experiment [3] (setting [13]), 5.76%; in experiment [3] (setting [14]), -5.69%; in experiment [4] (setting [15]) it was -12.5%; in experiment [4] (setting [16]), 5.32%.
On to `COc1ccc(OC)c(NCC(=O)Nc2cccnc2)c1` [SW202948], for which the activation at […] was -6.73% in experiment [2] (setting [11]); 8.36% in experiment [2] (setting [12]); -22% in experiment [3] (setting [13]); -23.1% in experiment [3] (setting [14]); 16.4% in experiment [4] (setting [15]); 7.54% in experiment [4] (setting [16]).
In the case of `COc1ccc(OC)c(N(CC(=O)Nc2ccccc2)S(=O)(=O)c2ccccc2)c1` [SW203687], the activation at […] in experiment [2] (setting [11]) is 1.75%; in experiment [2] (setting [12]), 56%; in experiment [3] (setting [13]) it was 28.2%; in experiment [3] (setting [14]) it was 47.5%; in experiment [4] (setting [15]), 45.7%; in experiment [4] (setting [16]) it was -41.6%.
Take `COc1ccccc1N(CC(=O)Nc1ccc(F)c(Cl)c1)S(=O)(=O)c1ccccc1` [compound 537833]: the activation at […] in experiment [2] (setting [17]) was 4.94%; in experiment [2] (setting [18]), 9.04%; in experiment [3] (setting [19]) it was -7.54%; in experiment [3] (setting [20]) it was -7.44%; in experiment [4] (setting [21]), 42.3%; in experiment [4] (setting [22]) it was 73.2%.
As for `CCOC(=O)c1sc2nc(-c3ccccc3)cc(-c3ccccc3)c2c1N` [compound 405320], the activation at […] is 9.95% in experiment [2] (setting [5]); -2.57% in experiment [2] (setting [6]); 8.77% in experiment [3] (setting [7]); -15.4% in experiment [3] (setting [8]); -7.73% in experiment [4] (setting [9]); -33.7% in experiment [4] (setting [10]).
With `COc1ccc(OC)c(N(CC(=O)Nc2cccnc2)S(=O)(=O)c2ccc(C)cc2)c1` [505072−23−1], the activation at […] turned out to be 101% in experiment [2] (setting [23]); 109% in experiment [2] (setting [24]); 94.7% in experiment [3] (setting [25]); 242% in experiment [4] (setting [26]); 239% in experiment [4] (setting [27]).
Regarding `COc1ccc(NC(=O)CN(c2ccccc2)S(=O)(=O)c2ccccc2)cc1` [compound 474759], the activation at […] is 5.54% in experiment [2] (setting [17]); -0.03% in experiment [2] (setting [18]); 2.58% in experiment [3] (setting [19]); 6.4% in experiment [3] (setting [20]); -5.04% in experiment [4] (setting [21]); -12.7% in experiment [4] (setting [22]).
In the case of `COc1ccc(S(=O)(=O)N(CC(=O)Nc2ccc(Cl)cc2Cl)c2ccccc2)cc1` [compound 543716], the activation at […] is 3.26% in experiment [2] (setting [17]); -2.08% in experiment [2] (setting [18]); 4.2% in experiment [3] (setting [19]); -0.14% in experiment [3] (setting [20]); -8.04% in experiment [4] (setting [21]); -8.6% in experiment [4] (setting [22]).
For the compound `COc1ccc(N(CC(=O)N/N=C/c2cccnc2)S(=O)(=O)c2ccccc2)c(OC)c1` [compound 396087], the activation at […] in experiment [2] (setting [17]) was 4.37%; in experiment [2] (setting [18]), 10.2%; in experiment [3] (setting [19]), -8.51%; in experiment [3] (setting [20]), 10.1%; in experiment [4] (setting [21]), 17.2%; in experiment [4] (setting [22]), 30.8%.
On to `COc1ccc(OC)c(N(CC(=O)Nc2cccnc2)S(C)(=O)=O)c1` [527699−66−7], for which the activation at […] in experiment [2] (setting [23]) is 7.31%; in experiment [2] (setting [24]), -29.6%; in experiment [3] (setting [25]), -31%; in experiment [4] (setting [26]) it was 38.8%; in experiment [4] (setting [27]), 70.9%.
Take `COc1ccc(OC)c(N(CC(=O)Nc2ccc(Cl)nc2)S(=O)(=O)c2ccccc2)c1` [SW202970]: the activation at […] in experiment [2] (setting [11]) is 47.9%; in experiment [2] (setting [12]), 55.9%; in experiment [3] (setting [13]) it was 32.7%; in experiment [3] (setting [14]), 17.8%; in experiment [4] (setting [15]), 179%; in experiment [4] (setting [16]) it was 122%.
